Among the test systems are A549; ACHN; EKVX; HCT-15; IGROV-1; MDA-MB-231; MOLT-4; NCI-H226; NCI-H460; RPMI-8226; RXF 393; SF-295; SK-MEL-28; SK-MEL-5; SNB-75; TK-10; U-251; UACC-62; UO-31; Malme-3M.
Holding throughout (assay): NCI anticancer screen, dose series, 48 h

Structures are written as SMILES.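 All cell lines were grown in 96-well plates and treated with compound for 48 hours. At the GI50, growth is halved.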 Active and inactive are the calls of the source. No stated cut-off is given here; in the data, active = GI50 up to about 1.1 µM and inactive = higher.

With `C=C1C(C(=O)OC)[C@H]1C(=O)OC` (some centres not stated), the GI50 in the assay with A549 was > 100 µM (inactive); with ACHN it was > 100 µM (inactive); in the assay on EKVX, > 100 µM (inactive); in the assay on HCT-15, > 100 µM; in the assay with IGROV-1 it was > 100 µM (inactive); with MDA-MB-231 it was > 100 µM (inactive). Further, the GI50 in the assay on MOLT-4, with NCI-H226, in the assay with NCI-H460, with RPMI-8226, in the assay on RXF 393 and with SF-295 was > 100 µM (inactive) each time. Besides, the GI50 in the assay with SK-MEL-28, in the assay with SK-MEL-5, with SNB-75, in the assay on TK-10, in the assay on U-251 and in the assay with UACC-62 was > 100 µM (inactive) in each case. Also, the GI50 with UO-31 is > 100 µM (inactive).

For the compound `CN(C(=O)c1ccccc1)C1CCCC(=O)CC1` (configuration not stated), the GI50 in the assay on A549 is > 100 µM (inactive); with ACHN it was > 100 µM (inactive); in the assay on EKVX, > 100 µM (inactive); in the assay with HCT-15 it was > 100 µM; with IGROV-1, > 100 µM (inactive); in the assay with MDA-MB-231, > 100 µM (inactive). Further, the GI50 with Malme-3M, in the assay on NCI-H226, in the assay with NCI-H460, in the assay on RPMI-8226, with RXF 393 and in the assay on SF-295 was > 100 µM (inactive) in each case. Further, the GI50 with SK-MEL-28, in the assay on SNB-75, in the assay with TK-10, in the assay on U-251, in the assay on UACC-62 and with UO-31 was > 100 µM (inactive) throughout.

`O=C(NC(=S)Nc1ccc2c(c1)Sc1ccccc1O2)c1ccc([N+](=O)[O-])cc1`: the GI50 in the assay on A549 is > 100 µM (inactive); with ACHN it was > 100 µM (inactive); in the assay with EKVX, > 100 µM (inactive); with HCT-15 it was > 100 µM; in the assay with IGROV-1, > 100 µM (inactive); in the assay with MDA-MB-231 it was > 100 µM (inactive). The GI50 with Malme-3M, in the assay on NCI-H226, in the assay with NCI-H460, in the assay with RPMI-8226, with RXF 393 and in the assay on SF-295 was > 100 µM (inactive) in each case. For the same compound, the GI50 with SK-MEL-28, in the assay on SK-MEL-5, in the assay on SNB-75, in the assay on TK-10, in the assay with U-251 and with UACC-62 was > 100 µM (inactive) each time. For the same compound, in the assay with UO-31, the GI50 was > 100 µM (inactive).

Consider `O=C1NC2CCCCC2NC1=C(C(=O)c1ccccc1)C(=O)c1ccccc1` (configuration not stated), for which the GI50 is 34 µM (inactive) in the assay with A549; 33.6 µM (inactive) with ACHN; 70.6 µM (inactive) in the assay with EKVX; 23.3 µM in the assay on HCT-15; 26.3 µM (inactive) in the assay with IGROV-1; 24.3 µM (inactive) with MDA-MB-231. The GI50 in the assay with MOLT-4 is 20.5 µM (inactive); with Malme-3M, > 100 µM (inactive); in the assay with NCI-H226 it was 12.5 µM (inactive); in the assay with NCI-H460, 27.4 µM (inactive); with RPMI-8226, 28.8 µM (inactive); in the assay on RXF 393, > 100 µM (inactive). Further, the GI50 is 40.8 µM (inactive) with SF-295; 78.2 µM (inactive) with SK-MEL-28; 27.5 µM (inactive) in the assay on SK-MEL-5; 84.1 µM (inactive) in the assay with TK-10; 26.6 µM (inactive) in the assay with U-251; 22.8 µM (inactive) in the assay on UACC-62. Besides, the GI50 with UO-31 is 26.9 µM (inactive).

Regarding `CC(=O)OCc1cc(CCC(=O)NCCNc2c3ccccc3nc3ccccc23)cc(COC(C)=O)c1O[Si](C)(C)C(C)(C)C`, the GI50 was 7.13 µM (inactive) in the assay with A549; 13.8 µM (inactive) in the assay with ACHN; 13.4 µM (inactive) in the assay on EKVX; 14.4 µM in the assay on HCT-15; 10.4 µM (inactive) with IGROV-1; 3.37 µM (inactive) in the assay on MDA-MB-231. In addition, the GI50 is 2.4 µM (inactive) with MOLT-4; 6.25 µM (inactive) in the assay with Malme-3M; 2.19 µM (inactive) with NCI-H226; 3.72 µM (inactive) in the assay with NCI-H460; 2.57 µM (inactive) in the assay with RPMI-8226; 3.48 µM (inactive) with RXF 393. Moreover, the GI50 in the assay on SF-295 was 2.67 µM (inactive); in the assay on SK-MEL-28 it was 4.73 µM (inactive); in the assay with TK-10, 7.46 µM (inactive); in the assay on U-251, 4.88 µM (inactive); in the assay with UACC-62, 6.9 µM (inactive); with UO-31 it was 12.9 µM (inactive).

`S=C(NCCc1ccccn1)N/N=C(\c1ccccc1)c1ccccn1`: the GI50 in the assay with A549 was 3.4 µM (inactive); in the assay on ACHN, < 0.0344 µM (active); with EKVX it was 0.0525 µM (active); in the assay with HCT-15, 0.0277 µM; with IGROV-1 it was < 0.0103 µM (active); with MDA-MB-231, 0.0247 µM (active). In addition, the GI50 in the assay with MOLT-4 was < 0.01 µM (active); in the assay on Malme-3M, 0.0251 µM (active); with NCI-H460, 0.179 µM (active); in the assay on RPMI-8226, 0.0634 µM (active); in the assay on RXF 393, 2.4 µM (inactive); in the assay on SF-295, 2.33 µM (inactive). The GI50 is 14.7 µM (inactive) in the assay with SK-MEL-28; 1.45 µM (inactive) in the assay with SK-MEL-5; 6.47 µM (inactive) in the assay with SNB-75; 1.33 µM (inactive) in the assay with TK-10; 0.121 µM (active) in the assay with U-251; 1.03 µM (active) in the assay on UACC-62. Also, the GI50 in the assay with UO-31 was 1.23 µM (inactive).

For `OC(c1ccoc1)c1cc2ccccc2s1` (configuration not stated), the GI50 with A549 is > 10 µM (inactive); in the assay with ACHN, > 10 µM (inactive); in the assay with EKVX, > 10 µM (inactive); in the assay on HCT-15, > 10 µM; in the assay on IGROV-1 it was > 10 µM (inactive); in the assay with MDA-MB-231, > 10 µM (inactive). For the same compound, the GI50 in the assay on MOLT-4, in the assay with NCI-H226, in the assay with NCI-H460, in the assay on RPMI-8226, in the assay on RXF 393 and in the assay on SF-295 was > 10 µM (inactive) in each case. The GI50 with SK-MEL-28, with SK-MEL-5, in the assay on SNB-75, in the assay with TK-10, with U-251 and in the assay with UACC-62 was > 10 µM (inactive) each time. Moreover, the GI50 in the assay on UO-31 was > 10 µM (inactive).

Turning to `C=C(C)C(=O)O[C@H]1[C@H]2[C@H](OC(=O)[C@H]2C)[C@H](O)[C@@H](C)[C@@H]2C=CC(=O)[C@]21C`, the GI50 is 4.16 µM (inactive) in the assay with A549; 4.11 µM (inactive) in the assay with ACHN; 2.86 µM (inactive) in the assay with EKVX; 2.04 µM in the assay on HCT-15; 2.37 µM (inactive) with IGROV-1; 4.54 µM (inactive) in the assay with MDA-MB-231. For the same compound, the GI50 with MOLT-4 is 3 µM (inactive); with Malme-3M it was 2.18 µM (inactive); in the assay on NCI-H226, 8.57 µM (inactive); in the assay with NCI-H460, 1.82 µM (inactive); with RPMI-8226, 2.85 µM (inactive); with RXF 393, 1.22 µM (inactive). Besides, the GI50 in the assay with SF-295 is 4.63 µM (inactive); in the assay on SK-MEL-28, 2.26 µM (inactive); in the assay with SK-MEL-5, 5.47 µM (inactive); in the assay on TK-10 it was 2.82 µM (inactive); with U-251, 3.16 µM (inactive); in the assay on UACC-62, 1.77 µM (inactive). In the assay with UO-31, the GI50 is 3.94 µM (inactive).

For `CN(C)c1nc(N)nc(CS)n1`, the GI50 in the assay with A549 was 51.3 µM (inactive); in the assay with ACHN, > 100 µM (inactive); with EKVX, > 100 µM (inactive); with HCT-15, 56.4 µM; in the assay with IGROV-1, > 100 µM (inactive); with MDA-MB-231, 45.6 µM (inactive). In addition, the GI50 is 50 µM (inactive) in the assay on MOLT-4; > 100 µM (inactive) in the assay with NCI-H226; 46 µM (inactive) in the assay on NCI-H460; 96.2 µM (inactive) with RPMI-8226; > 100 µM (inactive) in the assay on RXF 393; 52.4 µM (inactive) in the assay with SF-295. Also, the GI50 is > 100 µM (inactive) in the assay with SK-MEL-28; > 100 µM (inactive) in the assay with SK-MEL-5; > 100 µM (inactive) in the assay with SNB-75; > 100 µM (inactive) in the assay with TK-10; 89.5 µM (inactive) with U-251; 61.4 µM (inactive) in the assay with UACC-62. Also, the GI50 in the assay with UO-31 was > 100 µM (inactive).

Regarding `O=C(/C=c1\oc(=O)/c(=C/C(=O)c2ccc(Cl)cc2)oc1=O)c1ccc(Cl)cc1`, the GI50 in the assay with A549 was > 100 µM (inactive); in the assay on ACHN it was > 100 µM (inactive); in the assay with EKVX, > 100 µM (inactive); in the assay on HCT-15, 98.2 µM; in the assay with IGROV-1 it was 63.4 µM (inactive); with MDA-MB-231 it was > 100 µM (inactive). Also, the GI50 was 23.8 µM (inactive) in the assay on MOLT-4; 51.3 µM (inactive) in the assay on Malme-3M; > 100 µM (inactive) in the assay on NCI-H226; > 100 µM (inactive) in the assay on NCI-H460; > 100 µM (inactive) in the assay on RPMI-8226; 60.7 µM (inactive) in the assay with RXF 393. The GI50 in the assay with SF-295, in the assay with SK-MEL-28, in the assay on SK-MEL-5, in the assay with TK-10, in the assay with U-251 and with UACC-62 was > 100 µM (inactive) in each case. In addition, in the assay on UO-31, the GI50 is > 100 µM (inactive).

For `COc1ccc2[nH]cc(C=C3C(=O)NC(=S)NC3=O)c2c1`, the GI50 in the assay with A549 is > 100 µM (inactive); with ACHN it was > 100 µM (inactive); with EKVX, > 100 µM (inactive); in the assay on HCT-15 it was > 100 µM; in the assay on IGROV-1, > 100 µM (inactive); in the assay on MDA-MB-231 it was 48.6 µM (inactive). Besides, the GI50 in the assay with MOLT-4 was 62.4 µM (inactive); in the assay on Malme-3M, > 100 µM (inactive); with NCI-H226 it was > 100 µM (inactive); with NCI-H460 it was > 100 µM (inactive); in the assay on RXF 393, 30.3 µM (inactive); with SF-295 it was 94.8 µM (inactive). For the same compound, the GI50 with SK-MEL-28 is > 100 µM (inactive); in the assay on SK-MEL-5, > 100 µM (inactive); in the assay on SNB-75, 23.1 µM (inactive); in the assay with TK-10, 38.9 µM (inactive); in the assay on U-251, 24.2 µM (inactive); in the assay on UACC-62 it was > 100 µM (inactive). In addition, the GI50 in the assay on UO-31 was > 100 µM (inactive).

Source of the values: ChEMBL document CHEMBL1201862, “PubChem BioAssay data set” (2004).
